{"source": "patent US11161850B2", "about": "“Fused pyrazine derivatives as A2A / A2B inhibitors” (Incyte Corporation, priority 2018, dated 2021)", "key": {"[1]": {"target": "human adenosine A2B receptor (Homo sapiens (Human), UniProt P29275)", "sequence (P29275 whole entry)": "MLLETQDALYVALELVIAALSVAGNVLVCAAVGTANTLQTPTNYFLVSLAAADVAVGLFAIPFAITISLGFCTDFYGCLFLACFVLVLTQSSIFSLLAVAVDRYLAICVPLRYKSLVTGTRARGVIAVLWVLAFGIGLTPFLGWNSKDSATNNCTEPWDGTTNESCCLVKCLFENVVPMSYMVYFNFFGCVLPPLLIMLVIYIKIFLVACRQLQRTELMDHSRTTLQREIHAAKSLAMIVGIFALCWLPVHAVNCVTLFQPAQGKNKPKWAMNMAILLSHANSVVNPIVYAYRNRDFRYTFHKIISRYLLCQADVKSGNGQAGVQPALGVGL", "test": "Adenosine A2B Receptor Cyclic AMP GS Assay", "type": "cell-based", "details": "A2B_cAMP_EC50 (nM), HEK-293 cells expressing human A2B, agonist NECA 12 nM", "outline": "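Stably transfected HEK-293 cells were preincubated with compound for 30 min at room temperature, then stimulated with 12 nM NECA for 60 min. cAMP accumulation was read by FRET (665/620 ratio), and EC50 was fitted from percent of control versus log compound concentration.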"}, "Adenosine A2A": {"target": "Adenosine A2A (Homo sapiens (Human), UniProt P29274)", "sequence (P29274 whole entry)": "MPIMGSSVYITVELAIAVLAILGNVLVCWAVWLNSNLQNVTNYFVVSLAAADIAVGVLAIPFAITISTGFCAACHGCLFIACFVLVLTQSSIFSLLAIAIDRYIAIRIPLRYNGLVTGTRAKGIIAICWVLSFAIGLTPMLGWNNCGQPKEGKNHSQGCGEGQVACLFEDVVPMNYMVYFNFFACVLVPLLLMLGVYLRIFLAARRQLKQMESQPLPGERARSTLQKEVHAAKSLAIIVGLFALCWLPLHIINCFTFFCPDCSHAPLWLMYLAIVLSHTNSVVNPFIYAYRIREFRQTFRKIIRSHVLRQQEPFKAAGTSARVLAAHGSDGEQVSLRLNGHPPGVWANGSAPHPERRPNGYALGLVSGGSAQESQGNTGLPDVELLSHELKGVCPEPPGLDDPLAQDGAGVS", "test": "A2A Tag-Lite HTRF assay", "type": "binding", "source_text": "Example C. A2A Tag-Lite® HTRF Assay"}, "[2]": {"details": "Tag-Lite Adenosine A2A labeled cells, fluorescent ligand 12.5 nM, read-out: A2A_Ki"}}, "note": "Like-named read-outs stand apart in the source and are kept apart here."}
{"molecule": "CS(=O)(=O)CCn1cc(-c2cccc(F)c2Cc2nc3c(N)nc(-c4cccc(C#N)c4F)cn3n2)cn1", "note": "[Example 112, 3-(8-amino-2-(2-fluoro-6-(1-(2-(methylsulfonyl)ethyl)-1H-pyrazol-4-yl)benzyl)-[1,2,4]triazolo[1,5-a]pyrazin-6-yl)-2-fluorobenzonitrile]", "values": [{"measurement": "EC50", "setting": "[1]", "result": "< 10", "unit": "nM"}, {"measurement": "Ki", "setting": "Adenosine A2A; [2]", "result": "< 10", "unit": "nM"}]}
{"molecule": "CN(C)C(=O)Cn1cc(-c2cccc(F)c2Cc2nc3c(N)nc(-c4cccc(C#N)c4F)cn3n2)cn1", "note": "[Example 114, 2-(4-(2-((8-amino-6-(3-cyano-2-fluorophenyl)-[1,2,4]triazolo[1,5-a]pyrazin-2-yl)methyl)-3-fluorophenyl)-1H-pyrazol-1-yl)-N,N-dimethylacetamide]", "values": [{"measurement": "EC50", "setting": "[1]", "result": "10 to 100", "unit": "nM"}, {"measurement": "Ki", "setting": "Adenosine A2A; [2]", "result": "< 10", "unit": "nM"}]}
{"molecule": "N#Cc1cccc(-c2cn3nc(Cc4c(F)cccc4-c4cnn(CC(N)=O)c4)nc3c(N)n2)c1F", "note": "[Example 115, 2-(4-(2-((8-amino-6-(3-cyano-2-fluorophenyl)-[1,2,4]triazolo[1,5-a]pyrazin-2-yl)methyl)-3-fluorophenyl)-1H-pyrazol-1-yl)acetamide]", "values": [{"measurement": "EC50", "setting": "[1]", "result": "< 10", "unit": "nM"}, {"measurement": "Ki", "setting": "Adenosine A2A; [2]", "result": "< 10", "unit": "nM"}]}
{"molecule": "CN[C@H]1C[C@H](n2cc(-c3cccc(F)c3Cc3nc4c(N)nc(-c5cccc(C#N)c5F)cn4n3)cn2)C1", "note": "[Example 116, 3-(8-amino-2-(2-fluoro-6-(1-((trans)-3-(methylamino)cyclobutyl)-1H-pyrazol-4-yl)benzyl)-[1,2,4]triazolo[1,5-a]pyrazin-6-yl)-2-fluorobenzonitrile]", "values": [{"measurement": "EC50", "setting": "[1]", "result": "10 to 100", "unit": "nM"}, {"measurement": "Ki", "setting": "Adenosine A2A; [2]", "result": "< 10", "unit": "nM"}]}
{"molecule": "N#CCCn1cc(-c2cccc(F)c2Cc2nc3c(N)nc(-c4cccc(C#N)c4F)cn3n2)cn1", "note": "[Example 117, 3-(8-amino-2-(2-(1-(2-cyanoethyl)-1H-pyrazol-4-yl)-6-fluorobenzyl)-[1,2,4]triazolo[1,5-a]pyrazin-6-yl)-2-fluorobenzonitrile]", "values": [{"measurement": "EC50", "setting": "[1]", "result": "< 10", "unit": "nM"}, {"measurement": "Ki", "setting": "Adenosine A2A; [2]", "result": "< 10", "unit": "nM"}]}
{"molecule": "N#Cc1cccc(-c2cn3nc(Cc4c(F)cccc4-c4cnn(CC(=O)N5CC(O)C5)c4)nc3c(N)n2)c1F", "note": "[Example 118, 3-(8-amino-2-(2-fluoro-6-(1-(2-(3-hydroxyazetidin-1-yl)-2-oxoethyl)-1H-pyrazol-4-yl)benzyl)-[1,2,4]triazolo[1,5-a]pyrazin-6-yl)-2-fluorobenzonitrile]", "values": [{"measurement": "EC50", "setting": "[1]", "result": "< 10", "unit": "nM"}, {"measurement": "Ki", "setting": "Adenosine A2A; [2]", "result": "< 10", "unit": "nM"}]}
{"molecule": "Cc1cccnc1COc1nc2c(N)nc(-c3cccc(C#N)c3)c(-c3ccncn3)n2n1", "note": "[Example 119, 3-(8-amino-2-((3-methylpyridin-2-yl)methoxy)-5-(pyrimidin-4-yl)-[1,2,4]triazolo[1,5-a]pyrazin-6-yl)benzonitrile]", "values": [{"measurement": "EC50", "setting": "[1]", "result": "< 10", "unit": "nM"}, {"measurement": "Ki", "setting": "Adenosine A2A; [2]", "result": "< 10", "unit": "nM"}]}
{"molecule": "N#Cc1cccc(-c2cn3nc(Cc4ncccc4Nc4cnn(Cc5ccncc5)c4)nc3c(N)n2)c1F", "note": "[Example 120, 3-(8-Amino-2-((3-((1-(pyridin-4-ylmethyl)-1H-pyrazol-4-yl)amino)pyridin-2-yl)methyl)-[1,2,4]triazolo[1,5-a]pyrazin-6-yl)-2-fluorobenzonitrile]", "values": [{"measurement": "EC50", "setting": "[1]", "result": "10 to 100", "unit": "nM"}, {"measurement": "Ki", "setting": "Adenosine A2A; [2]", "result": "< 10", "unit": "nM"}]}
{"molecule": "N#Cc1cccc(-c2cn3nc(Cc4ncccc4Nc4cnn(C5CCOCC5)c4)nc3c(N)n2)c1F", "note": "[Example 121, 3-(8-amino-2-((3-((1-(tetrahydro-2H-pyran-4-yl)-1H-pyrazol-4-yl)amino)pyridin-2-yl)methyl)-[1,2,4]triazolo[1,5-a]pyrazin-6-yl)-2-fluorobenzonitrile]", "values": [{"measurement": "EC50", "setting": "[1]", "result": "10 to 100", "unit": "nM"}, {"measurement": "Ki", "setting": "Adenosine A2A; [2]", "result": "< 10", "unit": "nM"}]}
{"molecule": "Cn1cc(-c2cccnc2Cc2nc3c(N)nc(-c4cccc(C#N)c4)c(-c4ccncn4)n3n2)cn1", "note": "[Example 122, 3-(8-Amino-2-((3-(1-methyl-1H-pyrazol-4-yl)pyridin-2-yl)methyl)-5-(pyrimidin-4-yl)-[1,2,4]triazolo[1,5-a]pyrazin-6-yl)benzonitrile]", "values": [{"measurement": "EC50", "setting": "[1]", "result": "10 to 100", "unit": "nM"}, {"measurement": "Ki", "setting": "Adenosine A2A; [2]", "result": "< 10", "unit": "nM"}]}
{"molecule": "N#Cc1cccc(-c2nc(N)c3nc(Cc4ccccc4CN4CC[C@H](O)C4)nn3c2-c2ccncn2)c1", "note": "[Example 123, (S)-3-(8-Amino-2-(2-((3-hydroxypyrrolidin-1-yl)methyl)benzyl)-5-(pyrimidin-4-yl)-[1,2,4]triazolo[1,5-a]pyrazin-6-yl)benzonitrile]", "values": [{"measurement": "EC50", "setting": "[1]", "result": "10 to 100", "unit": "nM"}, {"measurement": "Ki", "setting": "Adenosine A2A; [2]", "result": "< 10", "unit": "nM"}]}
{"molecule": "N#Cc1cccc(-c2nc(N)c3ncnn3c2-c2ccc3nccn3c2)c1", "note": "[Example 124, 3-(8-Amino-5-(imidazo[1,2-a]pyridin-6-yl)-[1,2,4]triazolo[1,5-a]pyrazin-6-yl)benzonitrile]", "values": [{"measurement": "EC50", "setting": "[1]", "result": "< 10", "unit": "nM"}, {"measurement": "Ki", "setting": "Adenosine A2A; [2]", "result": "< 10", "unit": "nM"}]}
{"molecule": "N#Cc1cccc(-c2nc(N)c3nc(C(=O)N4CCC4)nn3c2-c2ccncc2F)c1", "note": "[Example 125, 3-(8-amino-2-(azetidine-1-carbonyl)-5-(3-fluoropyridin-4-yl)-[1,2,4]triazolo[1,5-a]pyrazin-6-yl)benzonitrile]", "values": [{"measurement": "EC50", "setting": "[1]", "result": "10 to 100", "unit": "nM"}, {"measurement": "Ki", "setting": "Adenosine A2A; [2]", "result": "< 10", "unit": "nM"}]}
{"molecule": "Cc1cc(-c2c(-c3cccc(C#N)c3F)nc(N)c3nc(C(O)c4c(F)cccc4F)nn23)cc(C)n1", "note": "(centres unmarked) [Example 126, 3-(8-amino-2-((2,6-difluorophenyl)(hydroxy)methyl)-5-(2,6-dimethylpyridin-4-yl)-[1,2,4]triazolo[1,5-a]pyrazin-6-yl)-2-fluorobenzonitrile]", "values": [{"measurement": "EC50", "setting": "[1]", "result": "10 to 100", "unit": "nM"}, {"measurement": "Ki", "setting": "Adenosine A2A; [2]", "result": "< 10", "unit": "nM"}]}
{"molecule": "[2H]C([2H])([2H])n1nc(-c2c(-c3cccc(C#N)c3)nc(N)c3nc(Cc4ccccn4)nn23)ccc1=O", "note": "[Example 127, 3-(8-amino-5-(1-(methyl-d3)-6-oxo-1,6-dihydropyridazin-3-yl)-2-(pyridin-2-ylmethyl)-[1,2,4]triazolo[1,5-a]pyrazin-6-yl)benzonitrile]", "values": [{"measurement": "EC50", "setting": "[1]", "result": "< 10", "unit": "nM"}, {"measurement": "Ki", "setting": "Adenosine A2A", "result": "< 10", "unit": "nM"}]}
{"molecule": "COc1cccc(Cc2nc3c(N)nc(-c4cccc(C#N)c4)c(-c4ccc(=O)n(C)n4)n3n2)n1", "note": "[Example 128, 3-(8-amino-2-((6-methoxypyridin-2-yl)methyl)-5-(1-methyl-6-oxo-1,6-dihydropyridazin-3-yl)-[1,2,4]triazolo[1,5-a]pyrazin-6-yl)benzonitrile]", "values": [{"measurement": "EC50", "setting": "[1]", "result": "10 to 100", "unit": "nM"}, {"measurement": "Ki", "setting": "Adenosine A2A; [2]", "result": "< 10", "unit": "nM"}]}
